From US10501461B2, “Tyrosine amide derivatives as Rho-kinase inhibitors” (CHIESI FARMACEUTICI S.P.A., priority 2017, dated 2019)

Assays:
Rho kinase 2 (ROCK-II) = Rho kinase 2 (ROCK-II) (Homo sapiens, UniProt O75116); assay: In vitro Rho kinase inhibitory activity assay (ADP-Glo), Rho kinase 2; type: biochemical; settings: 10 μM ATP, 25° C., expressed as range of activity
Experimental: (§1) The effectiveness of compounds of the present invention to inhibit Rho kinase activity can be determined in a 10 μl assay containing 40 mM Tris pH7.5, 20 mM MgCl2 0.1 mg/ml BSA, 50 μM DTT and 2.5 μM peptide substrate (Myelin Basic Protein) using an ADP-Glo kit (Promega). Compounds were dissolved in DMSO such that the final concentration of DMSO was 1% in the assay. All reactions/incubations are performed at 25° C. Compound (2 ul) and either Rho kinase 1 or 2 (4 μl) were mixed and incubated for 30 mins. Reactions were initiated by addition of ATP (4 μl) such that the final concentration of ATP in the assay was 10 μM. After a 1 hour incubation 10 μl of ADP-Glo Reagent was added and after a further 45 minute incubation 20 ul of Kinase Detection Buffer was added and the mixture incubated for a further 30 minutes. The luminescent signal was measured on a luminometer. […] Compounds were tested in dose-response format and the inhibition of kinase activity was calculated at each concentration of compound. To determine the IC50 (concentration of compound required to inhibit 50% of the enzyme activity) data were fit to a plot of % inhibition vs Log10 compound concentration using a sigmoidal fit with a variable slope and fixing the maximum to 100% and the minimum to 0%. To determine the Ki values the Cheng-Prusoff equation was utilized (Ki=IC50/(1+[S]/Km).

Rho kinase 1 (ROCK-I) = Rho kinase 1 (ROCK-I) (Homo sapiens, UniProt Q13464); assay: In vitro Rho kinase inhibitory activity assay (ADP-Glo), Rho kinase 1; type: biochemical; settings: 10 μM ATP, 25° C., expressed as range of activity
Chain of Rho kinase 1 (ROCK-I) (Q13464 whole entry): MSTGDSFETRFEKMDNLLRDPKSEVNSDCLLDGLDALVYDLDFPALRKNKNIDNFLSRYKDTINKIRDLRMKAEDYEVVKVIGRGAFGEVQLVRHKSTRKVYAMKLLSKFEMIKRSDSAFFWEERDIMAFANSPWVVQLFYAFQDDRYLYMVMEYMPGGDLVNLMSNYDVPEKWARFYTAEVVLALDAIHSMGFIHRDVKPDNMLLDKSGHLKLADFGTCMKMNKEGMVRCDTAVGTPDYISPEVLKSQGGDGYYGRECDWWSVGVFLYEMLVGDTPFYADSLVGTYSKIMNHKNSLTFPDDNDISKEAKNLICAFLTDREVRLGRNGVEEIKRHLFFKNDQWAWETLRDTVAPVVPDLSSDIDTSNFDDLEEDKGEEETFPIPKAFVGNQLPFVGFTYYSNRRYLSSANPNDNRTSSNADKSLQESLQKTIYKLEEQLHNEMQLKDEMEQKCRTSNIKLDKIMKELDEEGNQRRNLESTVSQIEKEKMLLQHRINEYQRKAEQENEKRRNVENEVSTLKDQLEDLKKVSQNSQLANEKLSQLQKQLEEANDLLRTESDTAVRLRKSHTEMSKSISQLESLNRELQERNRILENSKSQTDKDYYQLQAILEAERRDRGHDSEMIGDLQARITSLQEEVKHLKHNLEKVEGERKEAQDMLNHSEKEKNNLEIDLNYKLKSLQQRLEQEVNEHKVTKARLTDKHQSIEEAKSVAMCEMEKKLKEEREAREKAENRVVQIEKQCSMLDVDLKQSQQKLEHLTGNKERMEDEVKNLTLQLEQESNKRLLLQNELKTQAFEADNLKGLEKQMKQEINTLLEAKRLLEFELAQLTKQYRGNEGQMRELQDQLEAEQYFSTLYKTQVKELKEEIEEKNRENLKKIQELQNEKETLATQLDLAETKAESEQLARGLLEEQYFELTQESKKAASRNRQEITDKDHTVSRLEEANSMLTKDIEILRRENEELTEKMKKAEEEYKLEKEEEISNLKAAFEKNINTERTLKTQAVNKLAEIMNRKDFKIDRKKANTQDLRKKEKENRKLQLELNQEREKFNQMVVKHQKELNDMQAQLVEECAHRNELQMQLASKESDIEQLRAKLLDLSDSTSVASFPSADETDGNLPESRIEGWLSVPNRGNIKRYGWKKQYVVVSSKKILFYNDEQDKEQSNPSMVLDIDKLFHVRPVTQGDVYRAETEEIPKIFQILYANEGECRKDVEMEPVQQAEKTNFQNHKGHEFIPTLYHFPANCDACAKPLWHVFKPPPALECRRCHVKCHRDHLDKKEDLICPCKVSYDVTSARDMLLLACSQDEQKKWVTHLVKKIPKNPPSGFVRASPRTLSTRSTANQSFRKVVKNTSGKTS
Experimental: as §1

Chain of Rho kinase 2 (ROCK-II) (O75116 whole entry): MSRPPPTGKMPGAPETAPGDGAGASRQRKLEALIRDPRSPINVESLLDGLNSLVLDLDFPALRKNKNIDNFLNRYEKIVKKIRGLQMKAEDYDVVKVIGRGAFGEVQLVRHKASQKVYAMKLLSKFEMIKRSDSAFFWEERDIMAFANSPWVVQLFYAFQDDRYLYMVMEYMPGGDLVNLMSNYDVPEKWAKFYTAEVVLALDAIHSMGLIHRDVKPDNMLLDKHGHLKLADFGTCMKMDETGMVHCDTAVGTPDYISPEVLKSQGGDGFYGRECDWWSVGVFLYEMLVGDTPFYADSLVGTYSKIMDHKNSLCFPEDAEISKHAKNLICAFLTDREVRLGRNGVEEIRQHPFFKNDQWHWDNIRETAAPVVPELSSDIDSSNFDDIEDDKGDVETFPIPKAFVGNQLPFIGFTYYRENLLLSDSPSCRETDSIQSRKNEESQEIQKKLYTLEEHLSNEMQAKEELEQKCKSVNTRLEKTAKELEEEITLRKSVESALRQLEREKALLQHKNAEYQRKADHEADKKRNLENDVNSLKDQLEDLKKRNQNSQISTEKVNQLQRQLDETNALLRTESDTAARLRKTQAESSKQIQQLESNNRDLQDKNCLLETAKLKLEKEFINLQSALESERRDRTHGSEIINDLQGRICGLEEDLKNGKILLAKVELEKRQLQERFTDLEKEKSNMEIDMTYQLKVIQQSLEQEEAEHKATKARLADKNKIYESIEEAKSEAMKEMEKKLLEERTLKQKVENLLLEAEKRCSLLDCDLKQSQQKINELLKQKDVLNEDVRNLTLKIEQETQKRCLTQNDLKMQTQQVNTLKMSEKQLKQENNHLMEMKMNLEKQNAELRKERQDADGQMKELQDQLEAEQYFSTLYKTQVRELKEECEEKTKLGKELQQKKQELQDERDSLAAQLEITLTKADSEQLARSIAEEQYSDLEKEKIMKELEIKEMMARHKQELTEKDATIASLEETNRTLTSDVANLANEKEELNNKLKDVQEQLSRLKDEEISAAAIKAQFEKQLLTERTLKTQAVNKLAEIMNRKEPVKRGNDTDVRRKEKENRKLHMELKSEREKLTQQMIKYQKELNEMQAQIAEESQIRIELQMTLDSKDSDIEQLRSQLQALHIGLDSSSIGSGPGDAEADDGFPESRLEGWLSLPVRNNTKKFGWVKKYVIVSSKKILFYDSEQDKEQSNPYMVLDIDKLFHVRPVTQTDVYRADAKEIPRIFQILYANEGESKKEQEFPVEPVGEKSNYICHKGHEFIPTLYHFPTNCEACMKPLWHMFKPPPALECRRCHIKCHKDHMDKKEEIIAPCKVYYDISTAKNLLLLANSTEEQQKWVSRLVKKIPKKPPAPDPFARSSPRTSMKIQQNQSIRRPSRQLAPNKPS

Compound	Ki (Rho kinase 2 (ROCK-II))	Ki (Rho kinase 1 (ROCK-I))
Cc1c[nH]c2nccc(Oc3ccc(CC(N)C(=O)N4CCN(Cc5ccccc5)CC4)cc3F)c12 (single isomer, unassigned) [Example 132B, 2-amino-1-(4-benzylpiperazin-1-yl)-3-(3-fluoro-4-((3-methyl-1H-pyrrolo[2,3-b]pyridin-4-yl)oxy)phenyl)propan-1-one]	< 3 nM	3 to 30 nM
Cc1c[nH]c2nccc(Oc3ccc(C[C@H](N)C(=O)NC4CCN(C)CC4)cc3F)c12 [Example 1, (S)-2-amino-3-(3-fluoro-4-((3-methyl-1H-pyrrolo[2,3-b]pyridin-4-yl)oxy)phenyl)-N-(1-methylpiperidin-4-yl)propanamide]	< 3 nM	< 3 nM
Cc1c[nH]c2nccc(Oc3ccc(C[C@H](N)C(=O)N4CCc5ncncc5C4)cc3F)c12 [Example 2, (S)-2-amino-1-(7,8-dihydropyrido[4,3-d]pyrimidin-6(5H)-yl)-3-(3-fluoro-4-((3-methyl-1H-pyrrolo[2,3-b]pyridin-4-yl)oxy)phenyl)propan-1-one]	< 3 nM	< 3 nM
Cc1c[nH]c2nccc(Oc3ccc(C[C@H](N)C(=O)N4CC5(CN(C)C5)C4)cc3F)c12 [Example 3, (S)-2-amino-3-(3-fluoro-4-((3-methyl-1H-pyrrolo[2,3-b]pyridin-4-yl)oxy)phenyl)-1-(6-methyl-2,6-diazaspiro[3.3]heptan-2-yl)propan-1-one]	3 to 30 nM	3 to 30 nM
Cc1c[nH]c2nccc(Oc3ccc(C[C@H](N)C(=O)N4CCN(c5ccccc5)CC4)cc3F)c12 [Example 5, (S)-2-amino-3-(3-fluoro-4-((3-methyl-1H-pyrrolo[2,3-b]pyridin-4-yl)oxy)phenyl)-1-(4-phenylpiperazin-1-yl)propan-1-one]	< 3 nM	< 3 nM
Cc1c[nH]c2nccc(Oc3ccc(C[C@H](N)C(=O)N4CCC(S(=O)(=O)c5ccccc5)CC4)cc3F)c12 [Example 7, (S)-2-amino-3-(3-fluoro-4-((3-methyl-1H-pyrrolo[2,3-b]pyridin-4-yl)oxy)phenyl)-1-(4-(phenylsulfonyl)piperidin-1-yl)propan-1-one]	< 3 nM	< 3 nM
Cc1noc(C2CCN(C(=O)[C@@H](N)Cc3ccc(Oc4ccnc5[nH]cc(C)c45)c(F)c3)C2)n1 (stereo partly drawn) [Example 8, (2S)-2-amino-3-(3-fluoro-4-((3-methyl-1H-pyrrolo[2,3-b]pyridin-4-yl)oxy)phenyl)-1-(3-(3-methyl-1,2,4-oxadiazol-5-yl)pyrrolidin-1-yl)propan-1-one]	< 3 nM	< 3 nM
Cc1c[nH]c2nccc(Oc3ccc(C[C@H](N)C(=O)N4CCC(O)(Cc5ccccc5)CC4)cc3F)c12 [Example 9, (S)-2-amino-1-(4-benzyl-4-hydroxypiperidin-1-yl)-3-(3-fluoro-4-((3-methyl-1H-pyrrolo[2,3-b]pyridin-4-yl)oxy)phenyl)propan-1-one]	< 3 nM	< 3 nM
Cc1c[nH]c2nccc(Oc3ccc(C[C@H](N)C(=O)N4CCc5ccccc5C4)cc3F)c12 [Example 10, (S)-2-amino-1-(3,4-dihydroisoquinolin-2(1H)-yl)-3-(3-fluoro-4-((3-methyl-1H-pyrrolo[2,3-b]pyridin-4-yl)oxy)phenyl)propan-1-one]	< 3 nM	< 3 nM
Cc1c[nH]c2nccc(Oc3ccc(C[C@H](N)C(=O)N4CCC(Oc5cccnc5)CC4)cc3F)c12 [Example 11, (S)-2-amino-3-(3-fluoro-4-((3-methyl-1H-pyrrolo[2,3-b]pyridin-4-yl)oxy)phenyl)-1-(4-(pyridin-3-yloxy)piperidin-1-yl)propan-1-one]	< 3 nM	< 3 nM
Cc1c[nH]c2nccc(Oc3ccc(C[C@H](N)C(=O)N4CCC(c5ccncc5)CC4)cc3F)c12 [Example 12, (S)-2-amino-3-(3-fluoro-4-((3-methyl-1H-pyrrolo[2,3-b]pyridin-4-yl)oxy)phenyl)-1-(4-(pyridin-4-yl)piperidin-1-yl)propan-1-one]	< 3 nM	< 3 nM
